# According to US8618151B2, “Inhibitors of HCV NS5A” (Presidio Pharmaceuticals, Inc., priority 2008, dated 2013):
# Test system: HCV genotype 1b replicon
# Test: HCV replicon assay (1b_Huh-Luc/Neo-ET cell line, luciferase readout)
# Type: cell-based
# Settings: Hepatitis C virus, Huh-7, 72 h, read-out: Inhibition of HCV genotype 1b
# Outline: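 1b_Huh-Luc/Neo-ET Huh 7 cells carrying a bicistronic genotype 1b replicon; compounds added in triplicate the day after plating, 72 h incubation, then Bright-Glo luciferase read-out. Signal expressed as % of control; EC50 from curve fit, repeated several times.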
row,Structure (SMILES),EC50 [nM]
1,COC(=O)N[C@H](C(=O)N1CCC[C@H]1c1ncc(-c2ccc3cc(-c4ccc5nc([C@@H]6CCCN6C(=O)[C@@H](NC(=O)OC)[C@@H](C)OC)[nH]c5c4)ccc3c2)[nH]1)[C@@H](C)OC [compound 176],< 1
2,COC(=O)N[C@H](C(=O)N1CCC[C@H]1c1ncc(-c2ccc3cc(-c4ccc5nc([C@@H]6CCCN6C(=O)[C@@H](c6ccccc6)N(C)C)[nH]c5c4)ccc3c2)[nH]1)C(C)C [compound 177],< 1
3,COC(=O)N[C@H](C(=O)N1CCC[C@H]1c1nc2ccc(-c3ccc4cc(-c5cnc([C@@H]6CCCN6C(=O)[C@@H](c6ccccc6)N6CCCC6)[nH]5)ccc4c3)cc2[nH]1)C(C)C [compound 178],< 1
4,COC(=O)N[C@H](C(=O)N1CCC[C@H]1c1nc2ccc(-c3ccc4cc(-c5cnc([C@@H]6CCCN6C(=O)[C@H](NC(=O)OC)c6ccccc6)[nH]5)ccc4c3)cc2[nH]1)C(C)C [compound 179],< 1
5,COC(=O)N[C@H](C(=O)N1CCC[C@H]1c1ncc(-c2ccc3cc(-c4ccc5nc([C@@H]6CCCN6C(=O)[C@@H](c6ccccc6)N6CCCC6)[nH]c5c4)ccc3c2)[nH]1)C(C)C [compound 180],< 1
6,COC(=O)N[C@H](C(=O)N1CCC[C@H]1c1ncc(-c2ccc3cc(-c4ccc5nc([C@@H]6CCCN6C(=O)[C@H](NC(=O)OC)c6ccccc6)[nH]c5c4)ccc3c2)[nH]1)C(C)C [compound 181],< 1
7,COC(=O)N[C@H](C(=O)N1CCC[C@H]1c1nc2ccc(-c3ccc4cc(-c5cnc([C@@H]6CCCN6C(=O)[C@@H](c6ccccc6)N(C)C)[nH]5)ccc4c3)cc2[nH]1)C(C)C [compound 182],< 1
8,COC(=O)N[C@H](C(=O)N1CCC[C@H]1c1nc2ccc(-c3ccc4cc(-c5cnc([C@@H]6CCCN6C(=O)[C@H](NC(=O)N6CC[C@H](O)C6)c6ccccc6)[nH]5)ccc4c3)cc2[nH]1)C(C)C [compound 183],< 1
9,COC(=O)N[C@H](C(=O)N1CCC[C@H]1c1ncc(-c2ccc3cc(-c4ccc5nc([C@@H]6CCCN6C(=O)[C@H](NC(=O)N6CC[C@H](O)C6)c6ccccc6)[nH]c5c4)ccc3c2)[nH]1)C(C)C [compound 185],< 1
10,CNC(=O)N[C@@H](C(=O)N1CCC[C@H]1c1ncc(-c2ccc3cc(-c4ccc5nc([C@@H]6CCCN6C(=O)[C@@H](NC(=O)OC)C(C)C)[nH]c5c4)ccc3c2)[nH]1)c1ccccc1 [compound 186],< 1
11,COC(=O)N[C@H](C(=O)N1CCC[C@H]1c1ncc(-c2cnc3cc(-c4ccc5nc([C@@H]6CCCN6C(=O)[C@@H](NC(=O)OC)C(C)C)[nH]c5c4)ccc3c2)[nH]1)C(C)C [compound 187],< 1
12,COC(=O)N[C@H](C(=O)N1CCC[C@H]1c1ncc(-c2cnc3cc(-c4ccc5nc([C@@H]6CCCN6C(=O)[C@H](NC(=O)OC)c6ccccc6)[nH]c5c4)ccc3c2)[nH]1)C(C)C [compound 188],1 to 9.9
13,COC(=O)N[C@H](C(=O)N1CCC[C@H]1c1ncc(-c2ccc3cc(-c4ccc5nc([C@@H]6CCCN6C(=O)[C@@H](NC(=O)OC)C6CCOCC6)[nH]c5c4)ccc3c2)[nH]1)C(C)C [compound 189],< 1
14,COC(=O)N[C@H](C(=O)N1CCC[C@H]1c1nc2ccc(-c3ccc4cc(-c5cnc([C@@H]6CCCN6C(=O)[C@@H](NC(=O)OC)C6CCOCC6)[nH]5)ccc4c3)cc2[nH]1)C(C)C [compound 190],< 1
15,COC(=O)N[C@H](C(=O)N1CCC[C@H]1c1nc2ccc(-c3ccc4cc(-c5cnc([C@@H]6CCCN6C(=O)[C@@H](NC(=O)OC)C6CCOCC6)[nH]5)cnc4c3)cc2[nH]1)C(C)C [compound 191],< 1
16,COC(=O)N[C@H](C(=O)N1CCC[C@H]1c1ncc(-c2cnc3cc(-c4ccc5nc([C@@H]6CCCN6C(=O)[C@@H](NC(=O)OC)C6CCOCC6)[nH]c5c4)ccc3c2)[nH]1)C(C)C [compound 192],< 1
17,COC(=O)N[C@H](C(=O)N1CCC[C@H]1c1ncc(-c2ccc3nc(-c4ccc5nc([C@@H]6CCCN6C(=O)[C@@H](NC(=O)OC)C(C)C)[nH]c5c4)ccc3c2)[nH]1)C(C)C [compound 193],< 1
18,COC(=O)N[C@H](C(=O)N1CCC[C@H]1c1nc2ccc(-c3ccc4cc(-c5cnc([C@@H]6CCCN6C(=O)[C@@H](NC(=O)OC)C6CCOCC6)[nH]5)ccc4n3)cc2[nH]1)C(C)C [compound 194],< 1
19,COC(=O)N[C@H](C(=O)N1CCC[C@H]1c1nc2ccc(-c3ccc4cc(-c5cnc([C@@H]6CCCN6C(=O)[C@H](NC(=O)OC)c6ccccc6)[nH]5)cnc4c3)cc2[nH]1)C(C)C [compound 195],< 1
20,COC(=O)N[C@H](C(=O)N1CCC[C@H]1c1nc2ccc(-c3ccc4cc(-c5cnc([C@@H]6CCCN6C(=O)[C@H](NC(=O)OC)c6ccccc6)[nH]5)ccc4n3)cc2[nH]1)C(C)C [compound 196],< 1
21,COC(=O)N[C@H](C(=O)N1CCC[C@H]1c1ncc(-c2ccc3nc(-c4ccc5nc([C@@H]6CCCN6C(=O)[C@H](NC(=O)OC)c6ccccc6)[nH]c5c4)ccc3c2)[nH]1)C(C)C [compound 197],< 1

row,Structure (SMILES),EC50 [nM]
1,COC(=O)N[C@H](C(=O)N1CCC[C@H]1c1ncc(-c2ccc3cc(-c4ccc5nc([C@@H]6CCCN6C(=O)[C@@H](NC(=O)OC)C(C)C)[nH]c5n4)ccc3c2)[nH]1)C(C)C [compound 198],< 1
2,COC(=O)N[C@H](C(=O)N1CCC[C@H]1c1ncc(-c2ccc3cc(-c4ccc5nc([C@@H]6CCCN6C(=O)[C@H](NC(=O)OC)c6ccccc6)[nH]c5n4)ccc3c2)[nH]1)C(C)C [compound 199],< 1
3,COC(=O)N[C@H](C(=O)N1CCC[C@H]1c1nc2ccc(-c3ccc4cc(-c5cnc([C@@H]6CCCN6C(=O)[C@H](NC(=O)OC)c6ccccc6)[nH]5)ccc4c3)nc2[nH]1)C(C)C [compound 200],< 1
4,COC(=O)N[C@H](C(=O)N1CCC[C@H]1c1nc2ccc(-c3ccc4cc(-c5cnc([C@@H]6CCCN6C(=O)[C@@H](NC(=O)OC)C6CCOCC6)[nH]5)ccc4c3)nc2[nH]1)C(C)C [compound 201],< 1
5,COC(=O)N[C@H](C(=O)N1CCC[C@H]1c1ncc(-c2ccc3cc(-c4ccc5nc([C@@H]6CCCN6C(=O)[C@@H](NC(=O)OC)C6CCOCC6)[nH]c5n4)ccc3c2)[nH]1)C(C)C [compound 202],< 1
6,COC(=O)N[C@H](C(=O)N1CCC[C@H]1c1ncc(-c2ccc3cc(-c4ccc5nc([C@@H]6CCCN6C(=O)[C@@H](NC(=O)OC)C6CCOCC6)[nH]c5c4)ccc3c2)[nH]1)C1CCOCC1 [compound 203],< 1
7,COC(=O)N[C@H](C(=O)N1CCC[C@H]1c1ncc(-c2ccc3cc(-c4ccc5nc([C@@H]6CCCN6C(=O)[C@@H](NC(=O)OC)C(C)C)[nH]c5c4)ncc3c2)[nH]1)C(C)C [compound 204],< 1
8,COC(=O)N[C@H](C(=O)N1CCC[C@H]1c1ncc(-c2ccc3cc(-c4ccc5nc([C@@H]6CCCN6C(=O)[C@@H](NC(=O)OC)C6CCOCC6)[nH]c5n4)ccc3c2)[nH]1)C1CCOCC1 [compound 205],< 1
9,COC(=O)N[C@H](C(=O)N1CCC[C@H]1c1ncc(-c2ccc3nc(-c4ccc5nc([C@@H]6CCCN6C(=O)[C@@H](NC(=O)OC)C6CCOCC6)[nH]c5c4)ccc3c2)[nH]1)C1CCOCC1 [compound 206],1 to 9.9
10,COC(=O)N[C@H](C(=O)N1CCC[C@H]1c1ncc(-c2cccc3c(-c4ccc5nc([C@@H]6CCCN6C(=O)[C@@H](NC(=O)OC)C(C)C)[nH]c5c4)cccc23)[nH]1)C(C)C [compound 207],< 1
11,COC(=O)N[C@H](C(=O)N1CCC[C@H]1c1nc2ccc(-c3cccc4c(-c5cnc([C@@H]6CCCN6C(=O)[C@H](NC(=O)OC)c6ccccc6)[nH]5)cccc34)cc2[nH]1)C(C)C [compound 208],< 1
12,COC(=O)N[C@H](C(=O)N1CCC[C@H]1c1ncc(-c2ccc3cc(-c4ccc5nc([C@@H]6CCCN6C(=O)[C@@H](NC(=O)OC)C(C)C)[nH]c5c4)ccc3n2)[nH]1)C(C)C [compound 209],< 1
13,COC(=O)N[C@H](C(=O)N1CCC[C@H]1c1nc2ccc(-c3ccc4nc(-c5cnc([C@@H]6CCCN6C(=O)[C@H](NC(=O)OC)c6ccccc6)[nH]5)ccc4c3)cc2[nH]1)C(C)C [compound 210],< 1
14,COC(=O)N[C@H](C(=O)N1CCC[C@H]1c1nc2ccc(-c3ccc4nc(-c5cnc([C@@H]6CCCN6C(=O)[C@@H](NC(=O)OC)C6CCOCC6)[nH]5)ccc4c3)cc2[nH]1)C(C)C [compound 211],< 1
15,COC(=O)N[C@H](C(=O)N1CCC[C@H]1c1nc2ccc(-c3ccc4cc(-c5cnc([C@@H]6CCCN6C(=O)[C@H](NC(=O)OC)c6ccccc6)[nH]5)ccc4c3)cc2[nH]1)C1CCOCC1 [compound 212],< 1
16,COC(=O)N[C@H](C(=O)N1CCC[C@H]1c1ncc(-c2ccc3cc(-c4ccc5nc([C@@H]6CCCN6C(=O)[C@@H](c6ccccc6)N6CCOCC6)[nH]c5c4)ccc3c2)[nH]1)C(C)C [compound 213],< 1
17,COC(=O)N[C@H](C(=O)N1CCC[C@H]1c1ncc(-c2ccc3c(-c4ccc5[nH]c([C@@H]6CCCN6C(=O)[C@@H](NC(=O)OC)C(C)C)nc5c4)cccc3c2)[nH]1)C(C)C [compound 214],10 to 999
18,COC(=O)N[C@H](C(=O)N1CCC[C@H]1c1nc2ccc(-c3cccc4c(-c5cnc([C@@H]6CCCN6C(=O)[C@@H](NC(=O)OC)C6CCOCC6)[nH]5)cccc34)cc2[nH]1)C(C)C [compound 215],< 1
19,COC(=O)N[C@H](C(=O)N1CCC[C@H]1c1nc2ccc(-c3cc4ccc(-c5cnc([C@@H]6CCCN6C(=O)[C@@H](NC(=O)OC)C6CCOCC6)[nH]5)cc4cn3)cc2[nH]1)C(C)C [compound 216],< 1
20,COC(=O)N[C@H](C(=O)N1CCC[C@H]1c1ncc(-c2ccc3cc(-c4ccc5nc([C@@H]6CCCN6C(=O)[C@@H](NC(=O)OC)C6CCOCC6)[nH]c5c4)ncc3c2)[nH]1)C1CCOCC1 [compound 217],1 to 9.9
21,COC(=O)N[C@H](C(=O)N1CCC[C@H]1c1ncc(-c2ccc3cc(-c4ccc5nc([C@@H]6CCCN6C(=O)[C@@H](NC(=O)OC)C6CCCC6)[nH]c5c4)ccc3c2)[nH]1)C1CCCC1 [compound 218],< 1
